We go through 28 molecules from US12338262B2 (Forward Therapeutics, Inc., priority 2022, dated 2025).

Molecules are shown by their SMILES.

The test addresses TNF-α (Homo sapiens, UniProt P01375). Nature of the test: TNF-α Induced HEK Blue Cellular Assay. Type of test: cell-based. The following applies: HEK Blue TNFα reporter cells, TNF-α 100 pg/ml, 24 hrs at 37° C., secreted alkaline phosphatase (QUANTI-Blue, 620 nm). In outline: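 HEK Blue TNFα reporter cells (10,000/well, DMEM + 10% FBS) treated with compound ([…] to 0.5 nM final) and stimulated with 100 pg/ml TNF-α for 24 h at 37 °C. Secreted alkaline phosphatase read with QUANTI-Blue at 620 nm; IC50 by 4-parameter logistic fit after background correction to stimulated/unstimulated DMSO controls.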

Chain of TNF-α (P01375 77-233 limits assumed): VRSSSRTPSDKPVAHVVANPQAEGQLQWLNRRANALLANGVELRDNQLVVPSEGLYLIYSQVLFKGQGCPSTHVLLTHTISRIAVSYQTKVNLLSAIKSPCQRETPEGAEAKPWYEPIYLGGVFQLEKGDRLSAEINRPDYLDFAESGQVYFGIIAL

Broadly, the IC50 is the concentration that gives 50% inhibition. Read a low IC50 as inhibition by little substance. Take `Cc1nc2cc(F)c(-c3ccc(P(C)(C)=O)nc3)cc2c(N[C@H](C)c2cc(C#N)ccc2F)c1Cl` [Example 10, 3-[(1R)-1-({3-chloro-6-[6-(dimethylphosphoryl)pyridin-3-yl]-7-fluoro-2-methylquinolin-4-yl}amino)ethyl]-4-fluorobenzonitrile]: the IC50 is not above 0.1 µM.

As for `Cc1nc2cc(F)c(-c3ccc(P(C)(C)=O)nc3)nc2c(N[C@H](C)c2cccc(F)c2F)c1C1CC1` [Example 134, 3-cyclopropyl-N-[(1R)-1-(2,3-difluorophenyl)ethyl]-6-[6-(dimethylphosphoryl)pyridin-3-yl]-7-fluoro-2-methyl-1,5-naphthyridin-4-amine], the half-maximal inhibitory concentration (IC50) was 1 to 10 µM. The result for `CCC(Nc1c(Cl)c(C)nc2cc(F)c(-c3ccc(P(C)(C)=O)nc3)nc12)c1cccnc1` (stereo not shown) [Example 82, 3-chloro-6-[6-(dimethylphosphoryl)pyridin-3-yl]-7-fluoro-2-methyl-N-[1-(pyridin-3-yl)propyl]-1,5-naphthyridin-4-amine] reads not above 0.1 µM; that for `Cc1nc2cc(F)c(-c3ccc(P(C)(C)=O)c(F)c3)nc2c(N[C@H](C)c2cccc(Cl)c2F)c1Cl` [Example 118, 3-chloro-N-[(1R)-1-(3-chloro-2-fluorophenyl)ethyl]-6-[4-(dimethylphosphoryl)-3-fluorophenyl]-7-fluoro-2-methyl-1,5-naphthyridin-4-amine], not above 1 µM. The molecule `CC[C@@H](Nc1c(F)c(C)nc2cc(F)c(-c3ccc(P(C)(C)=O)nc3)nc12)c1ccccc1F` [Example 77, 6-[6-(dimethylphosphoryl)pyridin-3-yl]-3,7-difluoro-N-[(1R)-1-(2-fluorophenyl)propyl]-2-methyl-1,5-naphthyridin-4-amine] registered an IC50 not above 1 µM. The result for `Cc1nc2cc(F)c(-c3ccc(P(C)(C)=O)nc3)nc2c(N[C@H](c2cccc(F)c2F)C(F)F)c1Cl` [Example 146, (R)-(5-(7-chloro-8-((1-(2,3-difluorophenyl)-2,2-difluoroethyl)amino)-3-fluoro-6-methyl-1,5-naphthyridin-2-yl)pyridin-2-yl)dimethylphosphine oxide] reads 1 to 10 µM. As to `CC[C@H](Nc1c(Cl)c(C)nc2cc(F)c(-c3cnc(P(C)(C)=O)nc3)nc12)c1cccc(F)c1F` [Example 127, 3-chloro-N-[(1S)-1-(2,3-difluorophenyl)propyl]-6-[2-(dimethylphosphoryl)pyrimidin-5-yl]-7-fluoro-2-methyl-1,5-naphthyridin-4-amine], the concentration for half-maximal inhibition (IC50) is not above 1 µM. With `Cc1nc2cc(F)c(-c3ccc(P(C)(C)=O)nc3)nc2c(N[C@H](C)c2cc(F)cc(F)c2)c1Cl` [Example 85, 3-chloro-N-[(1R)-1-(3,5-difluorophenyl)ethyl]-6-[6-(dimethylphosphoryl)pyridin-3-yl]-7-fluoro-2-methyl-1,5-naphthyridin-4-amine], the half-maximal inhibitory concentration (IC50) was not above 1 µM.

Molecule `Cc1nc2cc(F)c(-c3ccc(P(C)(C)=O)nc3)nc2c(N[C@H](C)c2c(F)ccc(F)c2F)c1Cl` [Example 89, 3-chloro-6-[6-(dimethylphosphoryl)pyridin-3-yl]-7-fluoro-2-methyl-N-[(1R)-1-(2,3,6-trifluorophenyl)ethyl]-1,5-naphthyridin-4-amine] registered a 50% inhibitory concentration (IC50) of 10 to 30 µM. `CC[C@H](Nc1c(Cl)c(C)nc2cc(F)c(-c3cnc(P(C)(C)=O)nc3)nc12)c1ccccc1F` [Example 17, 3-chloro-6-[2-(dimethylphosphoryl)pyrimidin-5-yl]-7-fluoro-N-[(1S)-1-(2-fluorophenyl)propyl]-2-methyl-1,5-naphthyridin-4-amine] returned a 50% inhibitory concentration (IC50) not above 1 µM. Molecule `Cc1nc2cc(F)c(-c3cnc(P(C)(C)=O)nc3)nc2c(N[C@H](C)c2ccccc2F)c1Cl` [Example 7, 3-chloro-6-[2-(dimethylphosphoryl)pyrimidin-5-yl]-7-fluoro-N-[(1R)-1-(2-fluorophenyl)ethyl]-2-methyl-1,5-naphthyridin-4-amine] displayed an IC50 not above 1 µM. The molecule `C[C@@H](Nc1c(Cl)cnc2cc(F)c(-c3ccc(P(C)(C)=O)nc3)nc12)c1cc(C#N)ccc1F` [Example 15, 3-[(1R)-1-({3-chloro-6-[6-(dimethylphosphoryl)pyridin-3-yl]-7-fluoro-1,5-naphthyridin-4-yl}amino)ethyl]-4-fluorobenzonitrile] returned a half-maximal inhibitory concentration (IC50) not above 0.1 µM. Molecule `Cc1nc2cc(F)c(-c3ccc(P(C)(C)=O)nc3)nc2c(N[C@H](C)c2ccc(F)cc2F)c1Cl` [Example 88, 3-chloro-N-[(1R)-1-(2,4-difluorophenyl)ethyl]-6-[6-(dimethylphosphoryl)pyridin-3-yl]-7-fluoro-2-methyl-1,5-naphthyridin-4-amine] yielded a half-maximal inhibitory concentration (IC50) of 10 to 30 µM.

Consider `Cc1nc2cc(F)c(-c3ccc(P4(=O)CCOCC4)nc3)cc2c(N[C@H](C)c2cccc(F)c2F)c1Cl` [Example 103, 4-[5-(3-chloro-4-{[(1R)-1-(2,3-difluorophenyl)ethyl]amino}-7-fluoro-2-methylquinolin-6-yl)pyridin-2-yl]-1,4lambda5-oxaphosphinan-4-one], for which the IC50 lay within 10 to 30 µM. For the molecule `CC[C@@H](Nc1c(Cl)c(C)nc2cc(F)c(-c3cnc(P(C)(C)=O)nc3)nc12)c1ccccc1F` [Example 16, 3-chloro-6-[2-(dimethylphosphoryl)pyrimidin-5-yl]-7-fluoro-N-[(1R)-1-(2-fluorophenyl)propyl]-2-methyl-1,5-naphthyridin-4-amine], the concentration for half-maximal inhibition (IC50) is not above 0.1 µM. Regarding `Cc1nc2cc(F)c(-c3cnc(P(C)(C)=O)nc3)nc2c(NC(c2ccccc2F)C(F)F)c1Cl` (stereo not shown) [Example 29, 3-chloro-N-[2,2-difluoro-1-(2-fluorophenyl)ethyl]-6-[2-(dimethylphosphoryl)pyrimidin-5-yl]-7-fluoro-2-methyl-1,5-naphthyridin-4-amine], the IC50 was not above 1 µM.

For `Cc1nc2cc(F)c(-c3ccc(P(C)(C)=O)nc3)nc2c(N[C@H](CO)c2cc(C#N)ccc2F)c1Cl` (single isomer, unassigned) [Example 63], the concentration for half-maximal inhibition (IC50) is 10 to 30 µM. For the molecule `Cc1nc2cc(F)c(-c3ccc(P(C)(C)=O)nc3)nc2c(NC(c2ncccc2F)C2CC2)c1Cl` (stereo not shown) [Example 136, 3-chloro-N-[cyclopropyl(3-fluoropyridin-2-yl)methyl]-6-[6-(dimethylphosphoryl)pyridin-3-yl]-7-fluoro-2-methyl-1,5-naphthyridin-4-amine], the IC50 is not above 1 µM. `CC[C@@H](Nc1c(Cl)c(C)nc2cc(F)c(-c3ccc(P(C)(C)=O)nc3)nc12)c1ccccc1F` [Example 22, 3-chloro-6-[6-(dimethylphosphoryl)pyridin-3-yl]-7-fluoro-N-[(1R)-1-(2-fluorophenyl)propyl]-2-methyl-1,5-naphthyridin-4-amine] returned an IC50 not above 0.1 µM.

In the case of `Cc1nc2cc(F)c(-c3ccc(P(C)(C)=O)nc3)nc2c(N[C@@H](c2ccccc2F)C(F)F)c1Cl` (single isomer, unassigned) [Example 25], the half-maximal inhibitory concentration (IC50) is not above 0.1 µM. Take `CCC(Nc1c(Cl)c(C)nc2cc(F)c(-c3ccc(P(C)(C)=O)nc3)nc12)c1cnn(C)c1` (stereo not shown) [Example 104, 3-chloro-6-[6-(dimethylphosphoryl)pyridin-3-yl]-7-fluoro-2-methyl-N-[1-(1-methylpyrazol-4-yl)propyl]-1,5-naphthyridin-4-amine]: the IC50 was not above 1 µM. `Cc1nc2cc(F)c(-c3ccc(P(C)(C)=O)nc3)nc2c(N[C@H](C)c2cccc(F)c2F)c1C#N` [Example 144, 4-{[(1R)-1-(2,3-difluorophenyl)ethyl]amino}-6-[6-(dimethylphosphoryl)pyridin-3-yl]-7-fluoro-2-methyl-1,5-naphthyridine-3-carbonitrile] returned a half-inhibitory concentration (IC50) of 10 to 30 µM. The result for `Cc1nc2cc(F)c(-c3ccc(P(C)(C)=O)nc3)nc2c(N[C@H](C)c2nc(C#N)ccc2F)c1Cl` [Example 123, 6-[(1R)-1-({3-chloro-6-[6-(dimethylphosphoryl)pyridin-3-yl]-7-fluoro-2-methyl-1,5-naphthyridin-4-yl}amino)ethyl]-5-fluoropyridine-2-carbonitrile] reads not above 1 µM; that for `Cc1nc2cc(F)c(-c3ccc(P(C)(C)=O)nc3)nc2c(N[C@H](C)c2ccccc2F)c1Cl` [Example 18, 3-chloro-6-[6-(dimethylphosphoryl)pyridin-3-yl]-7-fluoro-N-[(1R)-1-(2-fluorophenyl)ethyl]-2-methyl-1,5-naphthyridin-4-amine], not above 0.1 µM. For `CC[C@@H](Nc1c(Cl)c(C)nc2cc(F)c(-c3ccc(P(C)(C)=O)nc3)c(F)c12)c1ncccc1F` [Example 74, (R)-(5-(3-chloro-5,7-difluoro-4-((1-(3-fluoropyridin-2-yl)propyl)amino)-2-methylquinolin-6-yl)pyridin-2-yl)dimethylphosphine oxide] the value was not above 1 µM; for `Cc1nc2cc(F)c(-c3cnc(P(C)(C)=O)nc3)nc2c(N[C@H](c2cc(C#N)ccc2F)C(F)F)c1Cl` [Example 38, (R)-3-(1-((3-chloro-6-(2-(dimethylphosphoryl)pyrimidin-5-yl)-7-fluoro-2-methyl-1,5-naphthyridin-4-yl)amino)-2,2-difluoroethyl)-4-fluorobenzonitrile], not above 1 µM. Molecule `Cc1nc2cc(F)c(-c3cnc(P(C)(C)=O)c(F)c3)cc2c(N[C@H](C)c2cc(F)cc(F)c2)c1Cl` [Example 129, 3-chloro-N-[(1R)-1-(3,5-difluorophenyl)ethyl]-6-[6-(dimethylphosphoryl)-5-fluoropyridin-3-yl]-7-fluoro-2-methylquinolin-4-amine] returned an IC50 of 10 to 30 µM. The result for `Cc1nc2cc(F)c(N3CCC(P(C)(C)=O)CC3)nc2c(N[C@H](C)c2cc(C#N)ccc2F)c1Cl` [Example 31, 3-[(1R)-1-({3-chloro-6-[4-(dimethylphosphoryl)piperidin-1-yl]-7-fluoro-2-methyl-1,5-naphthyridin-4-yl}amino)ethyl]-4-fluorobenzonitrile] reads not above 0.1 µM.
